Reference: patent US20210070866A1, “Pharmaceutical Composition For Preventing Or Treating Tissue Adhesion Comprising Integrin a2ß1 Inhibitors” (KOREA UNIVERSITY RESEARCH AND BUSINESS FOUNDATION, priority 2019, published 2021)

Columns and labels:
hDMCs = test: Cytotoxicity assay of BTT 3033 (cell viability assay, WST); format: cell-based, human; conditions: for Viability (A.U.): 37° C., 90 min
Protocol: To evaluate cell viability, EZ-Cytox cell viability assay kit (Daeillab Service Ltd., Seoul, Republic of Korea) was used according to the manufacturer's instructions. Water-soluble tetrazolium salt (WST) reagent was added to each well. After 1 hour of incubation, the absorbance of the supernatant was measured at the wavelength of 450 nm on a microplate absorbance reader. The viability was assessed by normalized absorbance values.
For cytotoxicity assay of BTT 3033, hDMCs were treated with BTT 3033 in a dose dependent manner and incubated at 37° C. for 90 min. After incubation, cell viability assay was performed.

co-cultured hDMCs = test: Adhesion assay of co-cultured hDMCs to ECM components after integrin α2β1 inhibitor treatment; format: cell-based, human; conditions: 130 nM, 37° C., 30 min
Protocol: Adhesion assays identifying ECM components adhering to hDMC were performed using CytoSelect 48-well cell adhesion assay kits (Cell Biolabs Inc., San Diego, Calif.).
After detachment of naïve hDMCs and MΦ-co-cultured hDMCs, cell suspensions were prepared in serum-free DMEM. A total of 1.5×10^3 cells in 150 μl serum-free medium were added to each well and incubated for 1 hour at 37° C. After removal of the medium, the cells were washed four times with 150 μl PBS.
Cell staining and protein extraction were performed according to the manufacturer's instructions. Cellular adhesion was assessed by measuring the optical density at 560 nm on a Gemini XPS Microplate Reader (Molecular Devices, Sunnyvale, Calif.).
For an adhesion assay for the functional validation of integrin α2β1, the co-cultured hDMCs were incubated with 130 nM BTT 3033 at 37° C. for 30 min. After incubation, an adhesion assay was performed as described above.

integrin α2β1 = integrin α2β1 (Homo sapiens, UniProt P17301); conditions: according to manufacturer's instructions; read-out: half maximal effective concentration (EC50); cited from earlier work
integrin α2β1, sequence (P17301 30-1181): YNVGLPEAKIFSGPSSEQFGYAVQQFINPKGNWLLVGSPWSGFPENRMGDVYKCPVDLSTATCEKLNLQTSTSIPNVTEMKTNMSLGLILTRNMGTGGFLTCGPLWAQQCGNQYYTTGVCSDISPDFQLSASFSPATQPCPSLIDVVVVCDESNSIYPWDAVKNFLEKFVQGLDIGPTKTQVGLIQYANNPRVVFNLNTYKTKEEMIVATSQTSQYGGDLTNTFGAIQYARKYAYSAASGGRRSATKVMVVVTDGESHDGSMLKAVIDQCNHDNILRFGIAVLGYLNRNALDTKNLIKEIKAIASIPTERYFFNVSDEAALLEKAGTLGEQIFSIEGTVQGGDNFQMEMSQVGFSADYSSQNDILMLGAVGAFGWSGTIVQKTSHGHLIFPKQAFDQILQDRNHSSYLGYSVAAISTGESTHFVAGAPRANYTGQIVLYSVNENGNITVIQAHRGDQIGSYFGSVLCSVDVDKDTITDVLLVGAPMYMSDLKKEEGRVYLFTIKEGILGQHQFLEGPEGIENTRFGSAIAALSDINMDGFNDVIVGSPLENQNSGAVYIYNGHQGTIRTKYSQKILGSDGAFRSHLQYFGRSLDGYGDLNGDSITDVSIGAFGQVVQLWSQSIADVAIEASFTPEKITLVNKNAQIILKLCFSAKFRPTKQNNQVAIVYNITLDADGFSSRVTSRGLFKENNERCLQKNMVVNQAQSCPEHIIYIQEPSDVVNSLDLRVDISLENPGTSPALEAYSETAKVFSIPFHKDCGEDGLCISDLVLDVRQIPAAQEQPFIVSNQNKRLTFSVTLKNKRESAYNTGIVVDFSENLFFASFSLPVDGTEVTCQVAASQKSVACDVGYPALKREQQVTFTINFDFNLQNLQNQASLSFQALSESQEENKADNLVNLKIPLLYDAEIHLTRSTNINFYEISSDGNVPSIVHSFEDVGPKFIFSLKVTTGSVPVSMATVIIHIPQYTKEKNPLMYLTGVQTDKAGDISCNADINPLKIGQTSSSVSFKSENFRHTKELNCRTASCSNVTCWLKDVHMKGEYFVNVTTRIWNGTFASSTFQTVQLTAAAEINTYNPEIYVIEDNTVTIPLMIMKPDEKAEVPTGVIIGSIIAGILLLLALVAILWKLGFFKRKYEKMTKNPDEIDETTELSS
integrin α2β1, sequence (P05556 21-798 partner): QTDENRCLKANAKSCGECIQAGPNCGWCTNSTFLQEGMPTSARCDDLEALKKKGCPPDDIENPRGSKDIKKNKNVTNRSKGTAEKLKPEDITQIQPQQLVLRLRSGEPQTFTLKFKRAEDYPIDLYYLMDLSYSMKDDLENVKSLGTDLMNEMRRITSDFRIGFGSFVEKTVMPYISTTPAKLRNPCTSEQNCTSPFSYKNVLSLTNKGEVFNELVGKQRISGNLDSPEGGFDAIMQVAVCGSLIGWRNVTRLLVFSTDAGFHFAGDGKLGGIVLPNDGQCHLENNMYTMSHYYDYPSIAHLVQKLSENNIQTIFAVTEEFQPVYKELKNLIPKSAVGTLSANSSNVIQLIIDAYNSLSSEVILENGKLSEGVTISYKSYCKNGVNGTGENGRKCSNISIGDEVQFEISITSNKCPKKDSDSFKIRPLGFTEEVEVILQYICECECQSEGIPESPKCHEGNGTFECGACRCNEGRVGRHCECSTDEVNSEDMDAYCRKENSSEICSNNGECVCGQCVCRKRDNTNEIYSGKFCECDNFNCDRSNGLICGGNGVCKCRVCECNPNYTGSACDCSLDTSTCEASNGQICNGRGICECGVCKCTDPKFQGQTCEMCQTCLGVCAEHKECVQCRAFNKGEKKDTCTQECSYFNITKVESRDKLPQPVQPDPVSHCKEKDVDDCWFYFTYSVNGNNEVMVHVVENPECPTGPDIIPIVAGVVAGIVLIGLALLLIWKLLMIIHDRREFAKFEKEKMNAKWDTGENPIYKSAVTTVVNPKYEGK

CN(c1ccc(NC(=O)Nc2ccccc2)cc1)S(=O)(=O)c1cnn(-c2ccc(F)cc2)c1 [BTT 3033, 1-(4-Fluorophenyl)-N-methyl-N-[4[[(phenylamino)carbonyl]amino]phenyl]-1H-pyrazole-4-sulfonamide]
Viability (A.U.) (hDMCs; BTT 3033 16.25 nM): 0.896 ± 0.090 A.U. | Viability (A.U.) (hDMCs; BTT 3033 32.50 nM): 0.844 ± 0.099 A.U. | Viability (A.U.) (hDMCs; BTT 3033 65.00 nM): 0.899 ± 0.075 A.U. | Viability (A.U.) (hDMCs; BTT 3033 130.00 nM): 0.800 ± 0.054 A.U. | Viability (A.U.) (hDMCs; BTT 3033 260.00 nM): 0.854 ± 0.081 A.U. | Viability (A.U.) (hDMCs; BTT 3033 520.00 nM): 0.827 ± 0.069 A.U. | cytotoxicity (hDMCs; concentration from 16.25 to 520.00 nM): less than 20.0% | adhesion of co-cultured hDMCs to collagen I (co-cultured hDMCs; un-treated 0.43±0.03): 0.27±0.04 | adhesion of co-cultured hDMCs to collagen IV (co-cultured hDMCs; un-treated 0.44±0.08): 0.28±0.08 | reduction of adhesion of co-cultured hDMCs to collagen I (co-cultured hDMCs; vs un-treated, p<0.001): 37.8% | reduction of adhesion of co-cultured hDMCs to collagen IV (co-cultured hDMCs; vs un-treated, p=0.057): 35.7% | EC50 (integrin α2β1): 130 nM
